From patent publication US20210244791A1, “APPLICATION OF PEDF-DERIVED SHORT PEPTIDES IN TENDON HEALING” (BRIM Biotechnology, Inc., priority 2018, published 2021)

Key:
[1] = tested on: cultured tendon stem/progenitor cells (TSPC); settings: peptide added in culture medium; previous study; cited from earlier work
tendon rupture = settings: rat model; previous study; cited from earlier work
Primary rabbit TSPC = experiment: TSPC cell proliferation assay (fluorometric kit); format: cell-based; settings: 10 μM peptide, low serum media, PDSP solvent (DMSO) set as 100%, mean±SE of three experiments
Procedure: Primary rabbit TSPC were cultured to near-confluence in a 75T cell culture flask and then verified by immunostaining of a TSPC marker, nucleostemin (>98%; green color). Nuclei were stained with Hoechst 33258 (blue color) and visualized by an epifluorescence microscopy. The nucleostemine-positive TSPC were treated with 10 μM 29-mer or its variants for 24 h. The numbers of TSPC after 24-h expansion were detected with a cell proliferation assay kit (BioVision; catalog number: K307). The TSPC treated with PDSP solvent was set as 100%. Results are expressed as mean±SE of three independent experiments.
(§1) Achilles tendons from New Zealand White rabbits (6-8 months old, 3.0-4.0 kg) were used in this study. Achilles tendons were washed two times with sterile phosphate-buffered saline (PBS) containing 50 μg/ml gentamicin. The tendon and tendon sheath were cut into small pieces (1-2 mm^3). Each 100 mg of fragment was then digested in a solution containing 3 mg/ml of type I collagenase and 4 mg/ml of dispase in 1 ml balance salt solution (BSS; Alcone) at 37° C. for 4 hours. The digested tissues were washed three times with PBS and collected by centrifugation (800 g for 10 min). The digested tissues were placed in tissue-culture plates (Falcon Labware; NJ, USA) and resuspended in high-glucose DMEM supplemented with 10% FBS and 50 μg/ml gentamycin, and maintained at 37° C. with 5% CO2. After 5 days, the medium was changed to remove the loosened tissue residues. Subsequently, tendon cells were incubated with 10% FBS medium for 2 days, and then cultured with a basal medium (2% FBS, 1% ITSE, 300 μg/ml L-glutamine, 1% antibiotic-antimicotic solutions) for further 10 days. Culture medium was changed every 3 days. For passage, tendon cells were harvested with 0.25% trypsin/EDTA, cell counting by haemocytometer, approximately 5×10^3 cells were seeded in each well of a 96-well cell culture plate or 2×10^5 cells were seeded in each well of a 6-well cell culture plate for 24 h. These expanded tendon cells were then treated with 10 μM 29-mer or its variants in fresh basal medium for further 24 h and subjected to cell proliferation assay and western blot analysis, respectively.
Cell Proliferation Assay Kit (Fluorometric) was purchased from BioVision (Catalog #: K307) and used to evaluate cell proliferation according to the manufacturer's recommendations. The fluorescence was read at 480 nm for excitation and 538 nm for emission on a SPECTRAmax GEMINI XS fluorescence microplate spectrophotometer (Molecular Devices, Sunnyvale, Calif., USA).
Rabbit TSPC isolation was described above. TSPC in low serum media were treated with 10 μM of one of the 29-mer variants for 24 h. Cell proliferation was examined by a cell proliferation kit based on a kit provided nuclear dye that specifically binds to nucleic acid in the cell and generates green fluorescence.

CD146-positive TSPC = experiment: CD146 immunostaining of TSPC in injured Achilles tendon; format: in vivo, rat; settings: 1 week after wounding; peptide/alginate gel; vehicle/alginate 38.3±7.8
Procedure: (A) Representative CD146-stained longitudinal sections. (Original magnification×200). (B) The number of CD146-positive TSPC per 200×field of view on injured tendon sections. Data are reported as mean±SE. Total CD146^+ cells were evaluated from 6 sections/tendon specimen, with 3 rats in each group. *P<0.001 versus vehicle/alginate-treated tendon; #p <0.001 versus 29-mer/alginate-treated tendon.
To investigate the effects of the 29-mer peptide on tendon healing, a rat model of Achilles tendon injury was established as reported by Orhan et al. (The effect of extracorporeal shock waves on a rat model of injury to tendon Achilles. A histological and biomechanical study. J. Bone Joint Surg. Br. 2004;.86(4):.613-618). Adult 10-week-old male Sprague-Dawley rats (initial body weight=312±11 g) were anesthetized by an intraperitoneal injection of xylazine (10 mg/kg). Then, the left tendo Achilles injury was created by full-thickness insertion of an 18-G needle through tendo Achilles 1 cm proximal to the calcaneum attachment site. This created a horizontal wound that was flanked by intact tendon tissue to prevent the retraction of severed ends. […]
CD146 is one of the TSPC markers. […] To test the mechanism of the 29-mer-induced tendon repair, CD146 immunostaining of TSPC located at injured tendon was measured, at 1 week after wounding. […]

cyclin D1 = experiment: Western blot analysis of cyclin D1 expression in TSPC; format: cell-based, rabbit; settings: TSPC treated 24 h; compared with solvent-treated cells; normalized to β-actin
Procedure: Primary rabbit TSPC were treated with 10NM 29-mer or its variants for 24 h. Representative blots (A) and densitometric analysis with the SD (B) from three independent experiments are shown. Cyclin D1 expression was normalized to ([…]. *P<0.01 vs. solvent-treated cells. ^#P<0.05 vs. 29-mer-treated cells.
as §1
Cell lysis, SDS-PAGE, and antibodies used for immunoblotting were performed as described (Ho et al., 15-deoxy-Delta(12,14)-prostaglandin J2 induces vascular endothelial cell apoptosis through the sequential activation of MAPKS and p53. J Biol. Chem., 2008; 283(44): 30273-30288). The band intensity in immunoblot was evaluated with a Model GS-700 imaging densitometer (Bio-Rad Laboratories, Hercules, Calif.) and analyzed using Labworks 4.0 software.
However, the 29-mer effect on cyclin D1 protein induction was almost abolished by alanine/glycine replacement at residue S93, A96, Q98, 1103, 1104 and R106, respectively (1.3±0.1, 1.5±0.3, 1.3±0.1, 0.9±0.1, 1.3±0.2, and 1.0±0.3). […] The data also imply that the PDSP at positions Ser93, Ala96, Gln98, Ile103, Ile104, and Arg106 are important for sustaining the PDSP effect on induction of TSPC proliferation.

SLGAEQRTESIIHRALYYDLISSPDIHGT (listed as Homo sapiens) [29-mer, PEDF-derived short peptide, human PEDF residues 93-121]
induction of cultured TSPC proliferation [1]: able to induce cultured tendon stem/progenitor cells (TSPC) proliferation | healing of tendon rupture (tendon rupture): facilitated healing of tendon rupture | TSPC proliferation (numbers of TSPC after 24-h expansion) (Primary rabbit TSPC): 135±6.1% | number of CD146-positive TSPC on injured tendon sections (CD146-positive TSPC): 86.8±6.0 cells per 200× field | induction of the cyclin D1 protein (cyclin D1): 2.9±0.5 fold
